Tests used:
Assay in all cases: relative viability (nuclei count vs DMSO), 5 days (fraction); higher = more cells survive
[1] = test system: COR-L 105
In short: (§1)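 Lung cancer cell lines, seeded in 1536-well plates, were treated the following day by pin tool with a single drug or with five library-drug doses (not always all listed) in √10 steps on top of a fixed anchor-drug dose. Cells were fixed and nuclei stained in one step after 5 days, and nuclei were counted. Relative viability is the nuclei count for treated wells divided by that for vehicle wells, reported as medians of duplicate plates.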

[2] = test system: COR-L23
In short: as §1

[3] = test system: HARA
In short: as §1

[4] = test system: HCC-15
In short: as §1

[5] = test system: HOP-62
In short: as §1

[6] = test system: NCI-H1355
In short: as §1

[7] = test system: NCI-H1395
In short: as §1

[8] = test system: NCI-H1734
In short: as §1

[9] = test system: NCI-H1755
In short: as §1

[10] = test system: NCI-H1793
In short: as §1

[11] = test system: NCI-H1993
In short: as §1

[12] = test system: NCI-H2009
In short: as §1

[13] = test system: NCI-H2170
In short: as §1

[14] = test system: NCI-H2228
In short: as §1

[15] = test system: NCI-H2347
In short: as §1

[16] = test system: NCI-H358
In short: as §1

[17] = test system: NCI-H522
In short: as §1

[18] = test system: NCI-H647
In short: as §1

[19] = test system: NCI-H838
In short: as §1

[20] = test system: SK-MES-1
In short: as §1

[21] = test system: UMC-11
In short: as §1

`O=c1cc(-c2cccc3c2Sc2ccccc2S3)oc(N2CCOCC2)c1` + O=C(CCCCCCC(=O)Nc1ccccc1)NO [Vorinostat] (partner 1 µM) gave a relative viability ([1]; first compound 0.08 µM) of 0.782, a relative viability ([1]; first compound 0.253 µM) of 0.828 and a relative viability ([1]; first compound 0.8 µM) of 0.751. The relative viability ([1]; first compound 2.53 µM) was 0.795, the relative viability ([1]; first compound 8 µM) was 1.1 and the relative viability ([2]; first compound 0.08 µM) was 0.472. For the same compound, the relative viability ([2]; first compound 0.253 µM) was 0.457, the relative viability ([2]; first compound 0.8 µM) was 0.397 and the relative viability ([2]; first compound 2.53 µM) was 0.442. It also gave a relative viability ([2]; first compound 8 µM) of 0.446, a relative viability ([3]; first compound 0.08 µM) of 0.538 and a relative viability ([3]; first compound 0.253 µM) of 0.59. The relative viability ([3]; first compound 0.8 µM) was 0.442, the relative viability ([3]; first compound 8 µM) was 0.36 and the relative viability ([4]; first compound 0.08 µM) was 0.906. For the same compound, the relative viability ([4]; first compound 0.253 µM) was 0.952, the relative viability ([4]; first compound 0.8 µM) was 0.82 and the relative viability ([4]; first compound 2.53 µM) was 0.722. It also gave a relative viability ([4]; first compound 8 µM) of 0.808, a relative viability ([5]; first compound 0.08 µM) of 0.646 and a relative viability ([5]; first compound 0.253 µM) of 0.832. It also gave a relative viability ([5]; first compound 0.8 µM) of 0.691, a relative viability ([5]; first compound 2.53 µM) of 0.661 and a relative viability ([5]; first compound 8 µM) of 0.664. For the same compound, the relative viability ([6]; first compound 0.08 µM) was 0.628, the relative viability ([6]; first compound 0.253 µM) was 0.709 and the relative viability ([6]; first compound 0.8 µM) was 0.526. It also gave a relative viability ([6]; first compound 2.53 µM) of 0.654, a relative viability ([6]; first compound 8 µM) of 0.584 and a relative viability ([7]; first compound 0.08 µM) of 0.636. For the same compound, the relative viability ([7]; first compound 0.253 µM) was 0.625, the relative viability ([7]; first compound 0.8 µM) was 0.777 and the relative viability ([7]; first compound 2.53 µM) was 0.669. For the same compound, the relative viability ([7]; first compound 8 µM) was 0.759, the relative viability ([8]; first compound 0.08 µM) was 0.771 and the relative viability ([8]; first compound 0.253 µM) was 0.94. The relative viability ([8]; first compound 0.8 µM) was 0.824, the relative viability ([8]; first compound 8 µM) was 0.993 and the relative viability ([9]; first compound 0.08 µM) was 0.734. The relative viability ([9]; first compound 0.253 µM) was 0.797, the relative viability ([9]; first compound 0.8 µM) was 0.795 and the relative viability ([9]; first compound 2.53 µM) was 0.709. It also gave a relative viability ([9]; first compound 8 µM) of 0.8, a relative viability ([10]; first compound 0.08 µM) of 0.653 and a relative viability ([10]; first compound 0.253 µM) of 0.846. For the same compound, the relative viability ([10]; first compound 0.8 µM) was 0.541, the relative viability ([10]; first compound 2.53 µM) was 0.627 and the relative viability ([10]; first compound 8 µM) was 0.804. For the same compound, the relative viability ([11]; first compound 0.08 µM) was 0.723, the relative viability ([11]; first compound 0.253 µM) was 0.843 and the relative viability ([11]; first compound 0.8 µM) was 0.908. It also gave a relative viability ([11]; first compound 2.53 µM) of 0.755, a relative viability ([11]; first compound 8 µM) of 0.736 and a relative viability ([12]; first compound 0.08 µM) of 0.761. For the same compound, the relative viability ([12]; first compound 0.253 µM) was 0.751, the relative viability ([12]; first compound 0.8 µM) was 0.667 and the relative viability ([12]; first compound 2.53 µM) was 0.684. The relative viability ([12]; first compound 8 µM) was 0.699, the relative viability ([13]; first compound 0.08 µM) was 0.857 and the relative viability ([13]; first compound 0.253 µM) was 0.952. For the same compound, the relative viability ([13]; first compound 0.8 µM) was 0.92, the relative viability ([13]; first compound 2.53 µM) was 0.693 and the relative viability ([13]; first compound 8 µM) was 0.932. It also gave a relative viability ([14]; first compound 0.08 µM) of 0.824, a relative viability ([14]; first compound 0.253 µM) of 0.646 and a relative viability ([14]; first compound 0.8 µM) of 0.76. For the same compound, the relative viability ([14]; first compound 2.53 µM) was 0.7, the relative viability ([14]; first compound 8 µM) was 0.578 and the relative viability ([15]; first compound 0.08 µM) was 0.606. The relative viability ([15]; first compound 0.253 µM) was 0.609, the relative viability ([15]; first compound 0.8 µM) was 0.548 and the relative viability ([15]; first compound 2.53 µM) was 0.499. The relative viability ([15]; first compound 8 µM) was 0.46, the relative viability ([16]; first compound 0.08 µM) was 0.725 and the relative viability ([16]; first compound 0.253 µM) was 0.651. For the same compound, the relative viability ([16]; first compound 0.8 µM) was 0.705, the relative viability ([16]; first compound 2.53 µM) was 0.71 and the relative viability ([16]; first compound 8 µM) was 0.632. For the same compound, the relative viability ([17]; first compound 0.08 µM) was 0.952, the relative viability ([17]; first compound 0.253 µM) was 0.909 and the relative viability ([17]; first compound 0.8 µM) was 0.811. For the same compound, the relative viability ([17]; first compound 2.53 µM) was 0.736, the relative viability ([17]; first compound 8 µM) was 1 and the relative viability ([18]; first compound 0.08 µM) was 0.527. For the same compound, the relative viability ([18]; first compound 0.253 µM) was 0.691, the relative viability ([18]; first compound 0.8 µM) was 0.766 and the relative viability ([18]; first compound 2.53 µM) was 0.638. The relative viability ([18]; first compound 8 µM) was 0.782, the relative viability ([19]; first compound 0.08 µM) was 0.746 and the relative viability ([19]; first compound 0.253 µM) was 0.739. It also gave a relative viability ([19]; first compound 0.8 µM) of 0.831, a relative viability ([19]; first compound 2.53 µM) of 0.636 and a relative viability ([19]; first compound 8 µM) of 0.535. The relative viability ([20]; first compound 0.08 µM) was 1.15, the relative viability ([20]; first compound 0.253 µM) was 1.23 and the relative viability ([20]; first compound 0.8 µM) was 1.01. It also gave a relative viability ([20]; first compound 2.53 µM) of 0.975, a relative viability ([20]; first compound 8 µM) of 0.939 and a relative viability ([21]; first compound 0.08 µM) of 0.312. It also gave a relative viability ([21]; first compound 0.253 µM) of 0.454, a relative viability ([21]; first compound 0.8 µM) of 0.362 and a relative viability ([21]; first compound 2.53 µM) of 0.394. The relative viability ([21]; first compound 8 µM) was 0.336.
